We go through three substances from patent publication US20220040253A1, “Agonists of Human Kisspeptin Receptor for Modulating Sexual Desire” (Université de Liège, priority 2019, published 2022).

“Also recorded” adds a separate entry of the source. No end group written: not given here. Bounds are passed on as bounds.

Experiment [1] has as its system human female patients diagnosed with HSDD. Briefly: Vaginal photoplethysmography (vaginal blood flow) while watching erotic or neutral images. The format is in vivo. The settings on record: single sc injection 6.4 nmol/kg. As for the experimental part:
20 human female patients diagnosed with HSDD receive either a single subcutaneous (sc) injection of kisspeptin-54 (SEQ ID NO: 17) at a dose of 6.4 nmol/kg of body weight or a sc injection of saline (i.e. control). The sexual desire of the patients is measured using vaginal photoplethysmography, which has been used to assess female genital arousal. It consists of a tampon-sized acrylic device containing a light emitting diode and a phototransistor to detect light to measure vaginal blood flow with increased sexual desire leading to increased vaginal blood flow. The sexual desire of the patients is scored starting 15 minutes after administration of sc kisspeptin or saline when watching either erotic images or neutral images. […] Any effects of kisspeptin on sexual desire disappear by 4 h after the injection.

For experiment [2] the test system is unchanged. Briefly: Brain activation by BOLD MRI while watching erotic pictures. It counts as in vivo. Particulars: single sc injection 6.4 nmol/kg; scan 30 minutes after injection; versus saline session. As for the experimental part: 20 human female patients diagnosed with HSDD receive either a single subcutaneous (sc) injection of kisspeptin-54 (SEQ ID NO: 17) at a dose of 6.4 nmol/kg of body weight or a sc injection of a saline (i.e. control). The sexual desire of the patients is measured by determining their brain activation using magnetic resonance imaging (MRI) with the blood-oxygenation-level-dependent (BOLD) technique to identify and quantify brain regions associated with visually evoked sexual arousal in women. All female patients are subjected to two sessions on separate days with at least 1 month in between the sessions to act as their own control. They receive in one session kisspeptin-54 and in the other one saline, the order will be randomized. Female patients are positioned into the MRI scanner 30 minutes after the sc injection and three dimensional images are taken of the brain when watching a series of erotic pictures as well as more neutral pictures to serve as control condition using an event-related design. The task is followed by an anatomical scan in which high resolution T1-weighted images are taken to determine the anatomical boundaries of the activation observed during the visual task.

Experiment [3] concerns female mice. Kind of experiment: Lordosis test without photostimulation (lordosis quotient). It counts as in vivo, mouse. As for the experimental part:
Unless otherwise stated, females were ovariectomized in adulthood (>8 weeks of age) under general anesthesia after either subcutaneous (sc) injections of ketamine (80 mg kg^−1 per mouse) and medetomidine (Domitor, Pfizer, 1 mg kg^−1 per mouse) or under 5% isoflurane, in order to control for endogenous hormone concentrations and to prevent pregnancies upon repeated testing. At the same time, all females received a 5 mm-long Silastic capsule (inner diameter: 1.57 mm; outer diameter: 2.41 mm) containing crystalline 17β-estradiol (diluted 1:1 with cholesterol) subcutaneously in the neck. The dose of E2 (E8875, Sigma) was based on a previous study^62 showing that this treatment leads to estradiol levels similar to mice in estrus. At the end of surgery, females under ketamine/medetomidine anesthesia received a sc injection of atipamezole (Antisedan, Pfizer, 4 mg kg^−1 per mouse) to antagonize medetomidine-induced effects and accelerate recovery. In order to induce sexual receptivity at the day of testing, all females received a subcutaneous injection with progesterone (500 μg, P0130, Sigma) 3 h before the onset of the behavioral test, unless stated otherwise (for overview of all the different hormone treatments, see Table 1). […]
Kisspeptin-10 (Kp-10) was synthesized in Strasbourg, France (Sequence: Tyr-Asn-Trp-Asn-Ser-Phe-Gly-Leu-Arg-Tyr-NH2, NeoMPS; weight=25.7 mg). To determine whether kisspeptin stimulated female sexual behavior in wildtype C57BL/6J mice, females received a sc injection of Kp-10 at the dose of 0.52 μg kg^−1 (injection volume 100 μl) 2h before the lordosis test. Each animal was used as its own control, i.e. the animal was injected one day with Kp-10 and the other day with saline. Females were not injected with progesterone in this particular experiment. Injections were separated by at least 3 days. […]
Females were subjected to weekly lordosis tests in a Plexiglas aquarium (37 cm long×17 cm high×21 cm wide). A sexually experienced male was placed alone in the aquarium and allowed to adapt for 15 min. Subsequently, 3 h after receiving a subcutaneous progesterone injection (500 μg, P0130, Sigma) to induce behavioral estrus, the lordosis responses of the female to the mounts of the stimulus male were recorded. The test lasted until the female received 10 mounts or 10 min had elapsed. For the first experiment (mating-induced Fos activation) ovary intact females were paired with males during 30 minutes. […] Before each experimental condition (drug injection, cell ablation, optogenetic stimulation), all females were subjected to at least three lordosis tests (with progesterone) in order to acquire sufficient sexual experience and thus a significant LQ. Tests were performed during the dark phase of the light cycle (5 h after lights out; for details, see^67). For all details on the different hormone treatments (estradiol versus estradiol+progesterone), see Table 1.

For experiment [4], the system named is female mice. Briefly: Mate preference test (three-compartment box, preference score). The format is in vivo, mouse. As for the experimental part:
Unless otherwise stated, females were ovariectomized in adulthood (>8 weeks of age) under general anesthesia after either subcutaneous (sc) injections of ketamine (80 mg kg^−1 per mouse) and medetomidine (Domitor, Pfizer, 1 mg kg^−1 per mouse) or under 5% isoflurane, in order to control for endogenous hormone concentrations and to prevent pregnancies upon repeated testing. At the same time, all females received a 5 mm-long Silastic capsule (inner diameter: 1.57 mm; outer diameter: 2.41 mm) containing crystalline 17β-estradiol (diluted 1:1 with cholesterol) subcutaneously in the neck. The dose of E2 (E8875, Sigma) was based on a previous study^62 showing that this treatment leads to estradiol levels similar to mice in estrus. At the end of surgery, females under ketamine/medetomidine anesthesia received a sc injection of atipamezole (Antisedan, Pfizer, 4 mg kg^−1 per mouse) to antagonize medetomidine-induced effects and accelerate recovery. In order to induce sexual receptivity at the day of testing, all females received a subcutaneous injection with progesterone (500 μg, P0130, Sigma) 3 h before the onset of the behavioral test, unless stated otherwise (for overview of all the different hormone treatments, see Table 1).
Kisspeptin-10 (Kp-10) was synthesized in Strasbourg, France (Sequence: Tyr-Asn-Trp-Asn-Ser-Phe-Gly-Leu-Arg-Tyr-NH2, NeoMPS; weight=25.7 mg). To determine whether kisspeptin stimulated female sexual behavior in wildtype C57BL/6J mice, females received a sc injection of Kp-10 at the dose of 0.52 μg kg^−1 (injection volume 100 μl) 2h before the lordosis test. Each animal was used as its own control, i.e. the animal was injected one day with Kp-10 and the other day with saline. Females were not injected with progesterone in this particular experiment. Injections were separated by at least 3 days.
Two hours before mate preference test, female mice received a single sc injection of GnRH (0.025 mg kg^−1, Polypeptide Laboratories France SAS, SC087).
S-nitroso-N-acetyl-DL-Penicillamine (SNAP) (N398-Sigma) is a NO donor. […]
To assess mate preferences shown in response to auditory and olfactory stimuli, we used a box (60 cm long×30 cm high×13 cm wide) that was divided into three compartments using perforated opaque partitions. […] The time the subject spent poking her nose through the holes of the partition or actively sniffing the bottom of the partition in front of the female versus male stimulus animal was recorded. A preference score was calculated by dividing the time spent investigating the male compartment minus the time spent investigating the female compartment by the total time spent investigating both compartments. […]

With “kisspeptin-54: human kisspeptin-54, SEQ ID NO: 17, amino acids 68 to 121 of NP_002247.3 (GTSLSPPPESSGSPQQPGLSAPHSRQIPAPQGAVLVQREKDLPNYNWNSFGLRF; listed as Homo sapiens)”, the “time by which effects on sexual desire disappear after the injection” value in experiment [1] was at most 4 h. The “vaginal blood flow when watching neutral images” value in experiment [1] (scored from 15 minutes after administration) is on record as “not when watching neutral images”. In experiment [1] (scored from 15 minutes after administration, versus saline), the “vaginal blood flow when watching erotic images” value is given as “show increased vaginal blood flow”. Besides, in experiment [2], the “brain activation when watching the images (BOLD MRI)” value was “show increased brain activation”.

In the case of “GnRH: GnRH from Polypeptide Laboratories France SAS, SC087 (QHWSYGLRPG; Gonadoliberin-1; UniProt P01148 24-33, looked up) [reference compound]”, the lordosis behavior entry in the experiment on female mice [3] (Kiss-/- (OVX+E) females, single injection, P=0.65, FIG. 9c) is “failed to stimulate lordosis behavior”; in the experiment with female mice [3] (nNOS-/- (OVX+E) females, sc injection, P=0.19, FIG. 11c), “failed to restore lordosis behavior; also recorded: failed to stimulate lordosis behavior”. The “male-directed preference (preference score)” value with female mice [4] (GnRH::Cre, Dicer loxP/loxP females (OVX+E), single sc injection 0.025 mg kg^-1, P=0.01, FIG. 9a) is on record as “induced a male-directed preference; also recorded: restored this behavior”.

On to “Tyr-Asn-Trp-Asn-Ser-Phe-Gly-Leu-Arg-Tyr-NH2 (YNWNSFGLRY-NH2) [Kp-10, Kisspeptin-10 synthesized in Strasbourg (NeoMPS), the decapeptide injected in mice]”, for which the lordosis behavior entry is “induced lordosis behavior; also recorded: could be reversed” in the experiment on female mice [3] (Kiss-/- (OVX+E+P) females with lordosis deficits, single sc injection, FIG. 4d); “robustly stimulated lordosis behavior” in the experiment with female mice [3] (WT C57BL/6J OVX+E females (no progesterone), sc 0.52 μg/kg 2 h before test, P<0.001, FIG. 4b); “stimulates lordosis behavior; also recorded: also stimulated lordosis behavior” in the experiment with female mice [3] (WT C57Bl6 (OVX+E+P) females, intracerebroventricular 10.4 ng/kg 1 h before test, P=0.012, FIG. 6); “failed to restore lordosis behavior” in the experiment with female mice [3] (nNOS-/- (OVX+E+P) females, sc injection, P=0.56, FIG. 11c); “failed to stimulate lordosis behavior” in the experiment with female mice [3] (nNOS-/- (OVX+E+P) females, sc injection, P=0.56, FIG. 11c, listed as KP-10). For the same substance, the “male-directed preference (preference score)” value with female mice [4] (GnRH::Cre, Dicer loxP/loxP females (OVX+E+P), sc injection, P=0.38, FIG. 9a) is listed as “failed to elicit a male-directed preference”; with female mice [4] (Kiss-/- (OVX+E+P) females, single sc injection 0.52 μg kg^-1, P<0.001, FIG. 1b), “induced a very strong preference for the male; also recorded: triggered a male-directed preference”; in the experiment on female mice [4] (KissIC Cre+ females (OVX+E+P) after AAV-Casp3 ablation of RP3V kisspeptin neurons, single sc injection, P=0.041, FIG. 1e) it was “induced a male-directed preference; also recorded: sufficient to induce a male-directed preference”.
